This note sets out measurements from PMC7866262, “Laccase-Catalyzed 1,4-Dioxane-Mediated Synthesis of Belladine N-Oxides with Anti-Influenza A Virus Activity” (International Journal of Molecular Sciences, 2021).

Like-named read-outs stand apart in the source and are kept apart here.

In data set [1] the test system is influenza A/Puerto Rico/8/34 H1N1 (PR8) virus. Kind of data set: microbe, parasite or virus in culture. Type of data set: cell-based. The note with it: for IC50: Influenza A virus.
Data set [2] shares this test system. As to the kind of experiment: microbe, parasite or virus in culture. The conditions noted are these: for IC50: Influenza A virus, 24 h, read-out: IC50 (concentration of compound causing 50% reduction of viral infection). Type of data set: cell-based.
The test system is the same in data set [3]. Type of data set: cell-based.
A short description of data set [4]: in vitro. The note with it: human.
Data set [5] can be described thus: in vitro. The conditions noted are these: dog.
Where [6] appears, read: A549, 24 h, read-out: IC50 (concentration of compound causing 50% reduction of viral infection).

For the molecule `C[N+]([O-])(CCCc1ccccc1)Cc1cccc(O)c1` (stereo not drawn) [Compound 12h, N-(3-Hydroxybenzyl)-N-Methyl-3-Phenylpropan-1-Amine Oxide], the IC50 in data set [1] (setting [6]) was 70.4 ± 3.1 µM; in data set [1] (A549, read-out: IC50 range against viral replication), 70 to 73 µg/mL; in data set [2], 73.2 ± 3.3 µM. For the same molecule, the “foci of infection in cell monolayers” value in data set [3] is recorded as “reduction of foci of infection”. Further, the CC50 in “in vitro [4]” is 287 ± 8.3 µM; in the data set “in vitro [5]” it was 221 ± 8.9 µM.

As to `C[N+]([O-])(CCc1ccc(O)cc1)Cc1cccc(O)c1` (stereo not drawn) [Compound 12b, N-(3-hydroxybenzyl)-2-(4-hydroxyphenyl)-N-methylethan-1-amine oxide], the values for the IC50 in data set [1] (setting [6]) and in data set [2] were 83.2 ± 5.1 µM and 138 ± 6.1 µM, respectively. The CC50 at 24 h in “in vitro [4]” came to 149 ± 6.2 µM. This molecule also showed a CC50 in the data set “in vitro [5]” of 129 ± 6 µM.

`COc1ccc(C[N+](C)([O-])CCc2ccc(O)cc2)cc1O` (stereo not drawn) [Compound 12a, N-(3-Hydroxy-4-Methoxybenzyl)-2-(4-Hydroxyphenyl)-N-Methylethan-1-Amine Oxide]: the IC50 was 78.8 ± 4.3 µM in data set [1] (setting [6]) and 137 ± 5.9 µM in data set [2]. Also, the CC50 at 24 h in the data set “in vitro [4]” was found to be 200 ± 7.1 µM. Besides, the CC50 in the data set “in vitro [5]” was found to be 137 ± 5.8 µM.

Take `COc1cc(Br)c(C[N+](C)([O-])CCc2ccc(O)cc2)cc1O` (stereo not drawn) [Compound 9, N-(2-Bromo-5-Hydroxy-4-Methoxybenzyl)-2-(4-Hydroxyphenyl)-N-Methylethan-1-Amine Oxide]: the IC50 in data set [1] (setting [6]) worked out at 377 ± 11.4 µM; in data set [2] it was 86.8 ± 5.1 µM. Besides, the CC50 at 24 h in the data set “in vitro [4]” turned out to be 211 ± 8.1 µM. The CC50 in the data set “in vitro [5]” came to 206 ± 7.9 µM.

In the case of `C[N+]([O-])(CCc1ccc(O)cc1)Cc1ccccc1` (stereo not drawn) [Compound 12e, N-Benzyl-2-(4-Hydroxyphenyl)-N-Methylethan-1-Amine Oxide], in data set [2], the “SI (Selectivity Index, CC50/IC50)” value amounted to 0.81 and the IC50 stood at 133 ± 5.8 µM. Further, in “in vitro [5]”, the CC50 is 109 ± 5.1 µM.

Take `C[N+]([O-])(CCc1ccc(O)cc1)Cc1ccc([N+](=O)[O-])c(O)c1` (stereo not drawn) [Compound 12d, N-(3-Hydroxy-4-Nitrobenzyl)-2-(4-Hydroxyphenyl)-N-Methylethan-1-Amine Oxide]: in data set [1], the “antiviral activity against influenza A virus (in words)” value is on record as “deprived the molecule of antiviral activity”. Further, the IC50 came out at 1240 ± 30.2 µM in data set [1] (setting [6]) and 70.2 ± 4 µM in data set [2]. Moreover, the CC50 was determined as 113 ± 6.1 µM in the data set “in vitro [4]” and 101 ± 4.9 µM in the data set “in vitro [5]”.

Take `C[N+]([O-])(CCc1ccc(O)cc1)Cc1ccc(O)cc1` (stereo not drawn) [Compound 12c, N-(4-Hydroxybenzyl)-2-(4-Hydroxyphenyl)-N-Methylethan-1-Amine Oxide]: the IC50 in data set [1] (setting [6]) was determined as 80.2 ± 4.9 µM; in data set [2], 84.7 ± 4.8 µM. Also, the CC50 at 24 h in the data set “in vitro [4]” is 83.8 ± 5 µM. Further, in the data set “in vitro [5]”, the CC50 was 114 ± 5.2 µM.
